Assay results reported in patent US12186359B2, “Composition containing branched-chain amino acids” (priority 2019, dated 2025).
Peptide text beside a SMILES is read from it.

Details: mouse, in vivo
Protocol: The aim of the study was to compare the exposure of L-Leucine-13C6, 15N, L-Isoleucine-13C6, 15N, L-Valine-13C5, 15N in plasma after their administration alone or in association with L-Alanine or L-Alanyl-L-alanine in the mouse. Plasma samples were analyzed by dean-up and derivatization using the EZfaast™ amino acid analysis kit (Phenomenex) and analyzed by UPLC-MSMS.
CD1 mouse with body weights of 25-30 gr at the time of the treatment were used in this study, approximate age was about 4 weeks according to growth curve. The animals were originally supplied by Harlan, Italy. Once receipt from the supplier, the animals were subjected to health examinations and acceptance. The animals were housed, in a group of five, in cages suitable for the species. The animals were acclimatized to local housing conditions for approximately 5 days. The animals were routinely kept in the following environment except for short periods of time where experimental procedures dictated otherwise. The animals were housed in a single, exclusive room, air conditioned to provide a minimum of 15 air changes/hour. […] Clinical signs were monitored at regular intervals throughout the study in order to assess any reaction to treatment. […]

Plasma concentrations of the labelled amino acids (AUC0-24 h), rank among groups: highest concentrations
SMILES: C[C@H](N)C(=O)N[C@@H](C)C(=O)O [L-Alanyl-L-alanine] (H-Ala-Ala-OH)
